Laboratory results from patent publication US10457707B2, “Substituted urea depsipeptide analogs as activators of the CLPP endopeptidase” (priority 2015, dated 2019).
In brackets after ≈: the same amount, converted by molar mass. Where two headings read alike, the source gives them in different places. *1 amine or outer side, *2 acyl side, *3 side chain or, on linkers, in order; H or OH if unused. Where a SMILES comes first, the peptide text is derived from it. Bridges are numbered along the chain shown (N, C = ends). [ ]: non-standard residue; d: D form. The star is where a group is joined. NH(1,3-benzodioxol-5-yl) = c1cc2c(cc1N*)OCO2; Phe(3,5-F2) = N[C@@H](Cc1cc(F)cc(F)c1)C(=O)O; Morpholine(3S-CO) = O=C(O)[C@@H]1COCCN1; Pro(4S-Me) = C[C@@H]1CN[C@H](C(=O)O)C1; Pro(4R-Me) = C[C@H]1CN[C@H](C(=O)O)C1; NH(4-Me-phenyl) = Cc1ccc(N*)cc1; aThr = C[C@H](O)[C@H](N)C(=O)O; Pip = O=C(O)[C@@H]1CCCCN1; X3 = Cn1ccc2ccc(N*)cc21; CO = O=C([*:1])[*:2]

How the values were obtained:
Format in all cases: cell-based
[1] = Cytotoxicity assay (CellTiter-Glo cell viability, 72 hours); conditions: African green monkey
Procedure: Cytotoxicity was determined by determining the effect of compounds on cell viability. Vero (kidney epithelial cells; ATCC CCL-81) monolayers were trypsinized and 5000 cells/well were seeded (10-15% confluency) into white-wall, flat bottom 96 well microwell plates (Corning) using enriched Dulbecco's Modified Eagle's Medium (Hyclone:DMEM/High Glucose) containing 10% Fetal Bovine Serum (ATCC-30-2020). Plates were incubated overnight at 37° C. in the presence of 5% CO2. Drug-free media was then replaced with media containing serial dilutions of test compound or DMSO carrier. After an additional 72 hours of incubation, viability was indirectly measured using the CellTiter-Glo® Luminescent Cell Viability (Promega) assay. Assay plates were read at peak emission wavelength of 560 nm using a EnVision® Multilabel Plate Reader (Perkin Elmer) or PHERAstar FS Multilabel reader (BMG, Cary, N.C.). […] USA, www.graphpad.com]. For each experiment, compounds were tested in duplicate. IC50 values presented are the range of two biologically independent experiments.

[2] = test system: Staphylococcus aureus, USA 300 wherein ClpP is inactivated; experiment: Minimal inhibitory concentration assay
In short: (§1)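 MIC is the lowest concentration stopping visible growth after overnight aerobic culture at 37 °C, per CLSI microbroth dilution (about 10^5 cfu/mL; two-fold series, top final 200 μM). ClpP-inactivated S. aureus USA 300 tested alongside parent strain to probe ClpP-mediated killing.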

[3] = test system: Streptococcus pyogenes, ATCC 700294; experiment: Minimal inhibitory concentration assay (microbroth dilution)
In short: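 Plates with two-fold compound dilution series in broth were incubated overnight, aerobically, at 37° C, following CLSI microdilution guidance.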

[4] = test system: Staphylococcus aureus, NRS70; experiment: as above
In short: as §1

[5] = test system: Enterococcus faecalis, ATCC 33186; experiment: as above; conditions: Enterococcus faecalis, ATCC33186, read-out: Minimal Inhibitory Concentrations E. faecalis ATCC 33186
In short: as §1

[6] = test system: Staphylococcus aureus, ATCC 29213; experiment: as above; conditions: ATCC29213, read-out: Minimal Inhibitory Concentrations S. aureus ATCC 29213
In short: as §1

[7] = test system: Bacillus subtilis, ATCC 23857; experiment: as above
In short: as §1

[8] = test system: Staphylococcus aureus, USA 300; experiment: Minimal inhibitory concentration assay; conditions: USA300, read-out: Minimal Inhibitory Concentrations S. aureus USA 300
In short: as §1

[9] = test system: Streptococcus pneumoniae, R6; experiment: Minimal inhibitory concentration assay; conditions: read-out: Minimal Inhibitory Concentrations S. pneumoniae R6
Procedure: It is understood, that in various aspects, the MIC is determined by a microbroth dilution method. […] In a still further aspect, the MIC is determined by a microbroth dilution method using Staphylococcus aureus, NRS70. […] In an even further aspect, the MIC is determined by a microbroth dilution method using Streptococcus pneumoniae, DAW27. […] In an even further aspect, the MIC is determined using Staphylococcus aureus, USA 300. In a still further aspect, the MIC is determined using Streptococcus pneumoniae, R6. In a further aspect, the MIC is determined using Staphylococcus aureus, USA 300 and compared to the MIC determined using Staphylococcus aureus, USA 300 wherein ClpP is inactivated, thus allowing confirmation that killing is via a ClpP-dependent pathway.
Two fold serial dilutions of test compound in 100 μL of the appropriate broth media were first prepared in 96-well round bottom microtiter plates (Nalgene Nunc International, Rochester, N.Y., USA). […] The plates were then incubated aerobically at 37° C. All strains were incubated overnight. After incubations, in all cases the MIC was recorded as the lowest concentration of drug that prevented bacterial growth. The bacterial strains for which MIC was determined as described in Table 4.

[10] = Vero cells, 72 hours, growth inhibition, read-out: Cytotoxicity IC50

SMILES | IC50 at 72 h [1, 10] | Minimal Inhibitory Concentrations S. aureus USA 300 ΔClpP [2] | MIC [6] | MIC [8] | other results
C[C@H]1C[C@H]2C(=O)O[C@@H](C)[C@H](NC(=O)[C@H](Cc3cc(F)cc(F)c3)NC(=O)Nc3ccc4c(c3)OCO4)C(=O)N3CCC[C@H]3C(=O)N3CCCC[C@H]3C(=O)N[C@@H](C)C(=O)N2C1 [Compound 196, (S)-2-(3-(benzo[d][1,3]dioxol-5-yl)ureido)-3-(3,5-difluorophenyl)-N-((2R,6S,8aS,14aS,20S,21S,23aS)-2,6,21-trimethyl-5,8,14,19,23-pentaoxooctadecahydro-1H,5H,14H,19H-pyrido[2,1-i]dipyrrolo[2,1-c:2′,1′-l][1]oxa[4,7,10,13]tetraazacyclohexadecin-20-yl)propanamide] ({NH(1,3-benzodioxol-5-yl)-CO}-[Phe(3,5-F2)][aThr]P[Pip]A[Pro(4S-Me)]; ester 2-C) | – | – | – | – | IC50 at 72 h [1]: 52.8 ± 4.9 µM
Cc1ccc(NC(=O)N[C@@H](Cc2cc(F)cc(F)c2)C(=O)N[C@@H]2C(=O)N3CCC[C@H]3C(=O)N3CCCC[C@H]3C(=O)N[C@@H](C)C(=O)N3C[C@@H](C)C[C@H]3C(=O)O[C@H]2C)cc1 [Compound 200, (S)-3-(3,5-difluorophenyl)-2-(3-(p-tolyl)ureido)-N-((2R,6S,8aS,14aS,20S,21S,23aS)-2,6,21-trimethyl-5,8,14,19,23-pentaoxooctadecahydro-1H,5H,14H,19H-pyrido[2,1-i]dipyrrolo[2,1-c:2′,1′-l][1]oxa[4,7,10,13]tetraazacyclohexadecin-20-yl)propanamide] ({NH(4-Me-phenyl)-CO}-[Phe(3,5-F2)][aThr]P[Pip]A[Pro(4S-Me)]; ester 2-C) | 26.7 ± 3.6 µM | 100 µM | – | – | –
C[C@@H]1C[C@H]2C(=O)O[C@@H](C)[C@H](NC(=O)[C@H](Cc3cc(F)cc(F)c3)NC(=O)Nc3ccc4ccn(C)c4c3)C(=O)N3CCC[C@H]3C(=O)N3CCCC[C@H]3C(=O)N[C@@H](C)C(=O)N2C1 [Compound 306, (S)-3-(3,5-difluorophenyl)-2-(3-(1-methyl-1H-indol-6-yl)ureido)-N-((2R,6S,8aS,14aS,20S,21S,23aS)-2,6,21-trimethyl-5,8,14,19,23-pentaoxooctadecahydro-1H,5H,14H,19H-pyrido[2,1-i]dipyrrolo[2,1-c:2′,1′-l][1]oxa[4,7,10,13]tetraazacyclohexadecin-20-yl)propanamide] ({X3-CO}-[Phe(3,5-F2)][aThr]P[Pip]A[Pro(4R-Me)]; ester 2-C) | 11.8 ± 0.8 µM | >20 µM | 0.156 µM (≈ 0.132 µg/mL) | 0.156 µM (≈ 0.132 µg/mL) | MIC ([3]; Streptococcus pyogenes, ATCC700294, read-out: Minimal Inhibitory Concentrations S. pyogenes ATCC 700294): 0.313 µM (≈ 0.265 µg/mL); MIC ([4]; Staphylococcus aureus, NRS70, read-out: Minimal Inhibitory Concentrations S. aureus NRS70): 0.078 µM (≈ 0.0661 µg/mL); MIC [5]: 0.039 µM (≈ 0.033 µg/mL); MIC ([7]; Bacillus subtilis, ATCC23857, read-out: Minimal Inhibitory Concentrations B. subtilis ATCC 23857): 0.078 µM (≈ 0.0661 µg/mL)
C[C@@H]1C[C@H]2C(=O)O[C@@H](C)[C@H](NC(=O)[C@H](Cc3cc(F)cc(F)c3)NC(=O)Nc3ccc4c(c3)OCO4)C(=O)N3CCC[C@H]3C(=O)N3CCOC[C@H]3C(=O)N[C@@H](C)C(=O)N2C1 [Compound 199, (S)-2-(3-(benzo[d][1,3]dioxol-5-yl)ureido)-3-(3,5-difluorophenyl)-N-((6aS,12S,13S,15aS,17R,21S,23aS)-13,17,21-trimethyl-6,11,15,20,23-pentaoxooctadecahydro-6H,11H,15H-[1,4]oxazino[3,4-i]dipyrrolo[2,1-c:2′,1′-l][1]oxa[4,7,10,13]tetraazacyclohexadecin-12-yl)propanamide] ({NH(1,3-benzodioxol-5-yl)-CO}-[Phe(3,5-F2)][aThr]P[Morpholine(3S-CO)]A[Pro(4R-Me)]; ester 2-C) | – | >20 µM | 0.039 µM (≈ 0.0328 µg/mL) | 0.078 µM (≈ 0.0655 µg/mL) | MIC ([3]; Streptococcus pyogenes, ATCC700294; read-out: Minimal Inhibitory Concentrations S. pyogenes ATCC 700294): 0.039 µM (≈ 0.0328 µg/mL); MIC [9]: < 0.02 µM; MIC ([4]; Staphylococcus aureus, NRS70; read-out: Minimal Inhibitory Concentrations S. aureus NRS70): 0.039 µM (≈ 0.0328 µg/mL); MIC ([7]; Bacillus subtilis, ATCC23857; read-out: Minimal Inhibitory Concentrations B. subtilis ATCC 23857): 0.039 µM (≈ 0.0328 µg/mL)
